US7223781B2 (Beiersdorf AG, priority 2001, dated 2007)
Like-named read-outs stand apart in the source and are kept apart here. Blank lines part the entries; values can stand above or below the compound they belong to.

Biological target: T1, COX-1 (Sus scrofa, UniProt A0A287ANF9)
T1 construct: A platelet suspension obtained from pig's blood is preincubated with the test substance; endogenous in cells; host or cells: platelets from pig's blood
Assay: In-vitro test for COX-1 inhibition: fluorimetric quantification of malonaldehyde (MDA) in A23187-activated pig platelet suspension
Format: cell-based
Conditions: pig platelets
Protocol: In-vitro Test Procedure for the Determination of COX-1 Inhibition
The inhibition of the cyclooxygenase pathway is carried out by fluorimetric quantification of malonaldehyde (MA). This condenses in the acidic medium with twice the molar amount of thiobarbituric acid to give a red pigment dye, which has a fluorescence at λExcitation: 533 nm, λEmission: 550 nm.
A platelet suspension obtained from pig's blood is preincubated with the test substance for 10 min at 37° C. The concentration of the suspension should be 8×10^8 cells/ml. The arachidonic acid cascade is then activated by addition of the antibiotic calcium ionophore A23187 ([…]). After a further 10 min at 37° C., the reaction is stopped using a trichloroacetic acid solution. The samples are centrifuged and the supernatant is incubated with thiobarbituric acid for 30 min at 70° C. After cooling (30 min at room temperature), the samples are measured fluorimetrically at 533/550 nm and the IC50 values of the test compounds are determined therefrom by means of a calibration curve.

[1] = Table 1, carbamic acid thioesters, read-out: MDA pIC50 (converted)
[2] = Table 2, sulfanylacetamides, read-out: MDA pIC50 (converted)
[3] = Table 8, arylsulfonamides, read-out: MDA IC50
[4] = Table 7, arylamides, read-out: MDA IC50
[5] = Table 7, arylamides, read-out: MDA pIC50 (converted)

T1 sequence (A0A287ANF9 25-600): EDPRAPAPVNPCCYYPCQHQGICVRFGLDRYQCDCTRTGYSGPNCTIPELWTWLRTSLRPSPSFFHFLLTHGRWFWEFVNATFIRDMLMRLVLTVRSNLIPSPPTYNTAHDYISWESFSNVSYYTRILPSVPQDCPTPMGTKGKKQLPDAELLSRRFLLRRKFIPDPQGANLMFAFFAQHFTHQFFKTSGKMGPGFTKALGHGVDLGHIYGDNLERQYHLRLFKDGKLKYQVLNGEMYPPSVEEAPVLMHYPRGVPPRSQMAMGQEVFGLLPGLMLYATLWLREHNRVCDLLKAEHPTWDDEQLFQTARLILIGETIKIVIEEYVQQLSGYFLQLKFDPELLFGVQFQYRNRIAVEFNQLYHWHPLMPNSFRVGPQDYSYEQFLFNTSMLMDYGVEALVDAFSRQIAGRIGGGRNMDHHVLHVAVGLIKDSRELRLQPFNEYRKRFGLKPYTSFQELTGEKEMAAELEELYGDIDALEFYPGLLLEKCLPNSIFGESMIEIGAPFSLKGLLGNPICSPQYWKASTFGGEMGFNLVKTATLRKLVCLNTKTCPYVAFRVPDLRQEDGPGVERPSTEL

SMILES: COc1ccc(-c2nc(SC(=O)N(C)C)[nH]c2-c2ccc(OC)cc2)cc1 [Compound T1, [4,5-Bis(4-methoxyphenyl)-1H-imidazol-2-yl]-N,N-dimethylcarbamic acid thioester]
- IC50 (Table 1, carbamic acid thioesters, read-out: MDA IC50): 71 nM

SMILES: COc1ccc(-c2nc(SC(=O)N(C(C)C)C(C)C)[nH]c2-c2ccc(OC)cc2)cc1 [Compound T3, [4,5-Bis(4-methoxyphenyl)-1H-imidazol-2-yl]-N,N-diisopropylcarbamic acid thioester]
- IC50 [1]: 12 nM

SMILES: COc1ccc(-c2nc(SC(=O)N3CCOCC3)[nH]c2-c2ccc(OC)cc2)cc1 [Compound T4, [4,5-Bis(4-methoxyphenyl)-1H-imidazol-2-yl]-morpholine-4-carbamic acid thioester]
- IC50 [1]: 28.2 nM

SMILES: COc1ccc(-c2nc(SCC(N)=O)[nH]c2-c2ccc(OC)cc2)cc1 [Compound T5, 2-[4,5-bis(4-methoxyphenyl)-1H-imidazol-2-ylsulfanyl]-acetamide]
- IC50 (Table 2, sulfanylacetamides, read-out: MDA IC50): 450 nM

SMILES: COc1ccc(-c2nc(SCC(=O)Nc3ccccc3)[nH]c2-c2ccc(OC)cc2)cc1 [Compound T9, N^1-Phenyl-2-[4,5-bis(4-methoxyphenyl)-1H-imidazol-2-ylsufanyl]acetamide]
- IC50 [2]: 34.7 nM

SMILES: COc1ccc(-c2nc(SCC(=O)Nc3ccc(Cl)cc3)[nH]c2-c2ccc(OC)cc2)cc1 [Compound T10, N^1-(4-Chlorophenyl)-2-[4,5-bis(4-methoxyphenyl)-1H-imidazol-2-yl-sufanyl]acetamide]
- IC50 [2]: 209 nM

SMILES: COc1ccc(-c2nc(SCC(=O)c3ccc(Cl)cc3)[nH]c2-c2ccc(OC)cc2)cc1 [Compound T12]
- IC50 (Table 4, aryl ketones, read-out: MDA IC50): 46 nM

SMILES: COc1ccc(-c2nc(SCCC(=O)c3ccccc3)[nH]c2-c2ccc(OC)cc2)cc1 [Compound T13, 3-[4,5-Bis(4-methoxyphenyl)-1H-imidazol-2-ylsufanyl]-1-phenylpropan-1-one]
- IC50 (Table 4, aryl ketones, read-out: MDA pIC50 (converted)): 20.9 nM

SMILES: COc1ccc(-c2nc(SCCN(C)C)[nH]c2-c2ccc(OC)cc2)cc1 [Compound T14, N,N-Dimethyl-[4,5-bis(4-methoxyphenyl)-1H-imidazol-2-ylsulfanyl]-ethanamine]
- MDA pIC50 (Table 3, amines): 5.49 M
- IC50 (Table 3, amines, read-out: MDA IC50): 3200 nM

SMILES: COc1ccc(-c2nc(SCCN)[nH]c2-c2ccc(OC)cc2)cc1 [Compound T15, 2-[4,5-Bis(4-methoxyphenyl)-1H-imidazol-2-ylsufanyl]ethanamine]
- IC50 (Table 3, amines, read-out: MDA pIC50 (converted)): 776 nM

SMILES: COc1ccc(-c2nc(SCCN(C)S(=O)(=O)c3ccc(Cl)cc3)n(C)c2-c2ccc(OC)cc2)cc1 [Compound T19, N^1-{2-[4,5-Bis(4-methoxyphenyl)-1-methyl-1H-imidazol-2-ylsufanyl]-ethyl}-N-1-methyl-4-chlorobenzenesulfonamide]
- IC50 (Table 16, dimethyl compounds, read-out: MDA pIC50 (converted)): 69.2 nM

SMILES: COc1ccc(-c2nc(SCCNS(=O)(=O)c3ccc([N+](=O)[O-])cc3)[nH]c2-c2ccc(OC)cc2)cc1 [Compound T21, N^1-{2-[4,5-Bis(4-methoxyphenyl)-1H-imidazol-2-ylsufanyl]ethyl}-4-nitro-benzenesulfonamide]
- MDA pIC50 (Table 8, arylsulfonamides): 6.96 M
- IC50 [3]: 110 nM

SMILES: COc1ccc(-c2nc(SCCNC(=O)c3ccccc3)n(C)c2-c2ccc(OC)cc2)cc1 [Compound T30, N^1-{2-[4,5-Bis(4-methoxyphenyl)-1-methyl-1H-imidazol-2-ylsufanyl]-ethyl}benzamide]
- IC50 (Table 17, methyl derivatives, read-out: MDA pIC50 (converted)): 41.7 nM

SMILES: COc1ccc(-c2nc(SCCNC(=O)c3ccc(Cl)cc3Cl)[nH]c2-c2ccc(OC)cc2)cc1 [Compound T35, N^1-{2-[4,5-Bis(4-methoxyphenyl)-1H-imidazol-2-ylsufanyl]ethyl}-2,4-dichlorobenzamide]
- IC50 [5]: 151 nM

SMILES: COc1ccc(-c2nc(SCCNC(=O)c3c(Cl)cccc3Cl)[nH]c2-c2ccc(OC)cc2)cc1 [Compound T36, N^1-{2-[4,5-Bis(4-methoxyphenyl)-1H-imidazol-2-ylsufanyl]ethyl}-2,6-dichlorobenzamide]
- IC50 [5]: 110 nM

SMILES: COc1ccc(-c2nc(SCCNC(=O)c3cc(Cl)cc(Cl)c3)[nH]c2-c2ccc(OC)cc2)cc1 [Compound T37, N^1-{2-[4,5-Bis(4-methoxyphenyl)-1H-imidazol-2-ylsulfanyl]ethyl}-3,5-dichlorobenzamide]
- IC50 [4]: 520 nM

SMILES: COc1ccc(-c2nc(SCCNC(=O)c3ccc(C(F)(F)F)cc3)[nH]c2-c2ccc(OC)cc2)cc1 [Compound T42, N^1-{2-[4,5-Bis(4-methoxyphenyl)-1H-imidazol-2-ylsufanyl]ethyl}-4-(tri-fluoromethyl)benzamide]
- IC50 [5]: 324 nM

SMILES: COc1ccc(-c2nc(SCCNC(=O)c3cccc(C(F)(F)F)c3)[nH]c2-c2ccc(OC)cc2)cc1 [Compound T43, N^1-{2-[4,5-Bis(4-methoxyphenyl)-1H-imidazol-2-ylsufanyl]ethyl}-3-(tri-fluoromethyl)benzamide]
- IC50 [5]: 100 nM

SMILES: COc1ccc(-c2nc(SCCNC(=O)c3cc(C(F)(F)F)cc(C(F)(F)F)c3)[nH]c2-c2ccc(OC)cc2)cc1 [Compound T44, N^1-{2-[4,5-Bis(4-methoxyphenyl)-1H-imidazol-2-ylsufanyl]ethyl}-3,5-bis-(trifluoromethyl)benzamide]
- IC50 [4]: 520 nM

Further lines, results first:

- IC50 [3]: 50 nM
SMILES: COc1ccc(-c2nc(SCCNS(=O)(=O)c3ccccc3)[nH]c2-c2ccc(OC)cc2)cc1 [Compound T17, N^1-{2-[4,5-Bis(4-methoxyphenyl)-1H-imidazol-2-ylsufanyl]ethyl}benzene-sulfonamide]

- IC50 [3]: 60 nM
SMILES: COc1ccc(-c2nc(SCCNS(=O)(=O)c3ccc(F)cc3)[nH]c2-c2ccc(OC)cc2)cc1 [Compound T20, N^1-{2-[4,5-Bis(4-methoxyphenyl)-1H-imidazol-2-ylsufanyl]ethyl}-4-fluorobenzenesulfonamide]

- IC50 [3]: 48 nM
SMILES: COc1ccc(-c2nc(SCCNS(=O)(=O)c3ccc(C)cc3)[nH]c2-c2ccc(OC)cc2)cc1 [Compound T24, N^1-{2-[4,5-Bis(4-methoxyphenyl)-1H-imidazol-2-ylsufanyl]ethyl}-4-methylbenzenesulfonamide]

- IC50 (Table 8, arylsulfonamides, read-out: MDA pIC50 (converted)): 324 nM
SMILES: COc1ccc(-c2nc(SCCNS(=O)(=O)c3c(C)cc(C)cc3C)[nH]c2-c2ccc(OC)cc2)cc1 [Compound T25, N^1-{2-[4,5-Bis(4-methoxyphenyl)-1H-imidazol-2-ylsufanyl]ethyl}-2,4,6-trimethylbenzenesulfonamide]

- IC50 [3]: 490 nM
SMILES: COc1ccc(-c2nc(SCCNS(=O)(=O)c3ccc(C(C)(C)C)cc3)[nH]c2-c2ccc(OC)cc2)cc1 [Compound T26, N^1-{2-[4,5-Bis(4-methoxyphenyl)-1H-imidazol-2-ylsufanyl]ethyl}-4-(tert-butyl)benzenesulfonamide]

- IC50 [4]: 540 nM
SMILES: COc1ccc(-c2nc(SCCNC(=O)c3ccccc3)[nH]c2-c2ccc(OC)cc2)cc1 [Compound T28, N^1-{2-[4,5-Bis(4-methoxyphenyl)-1H-imidazol-2-ylsufanyl]ethyl}benzamide]

- IC50 [5]: 251 nM
SMILES: COc1ccc(-c2nc(SCCNC(=O)c3ccc(Cl)cc3)[nH]c2-c2ccc(OC)cc2)cc1 [Compound T32, N^1-{2-[4,5-Bis(4-methoxyphenyl)-1H-imidazol-2-ylsufanyl]ethyl}-4-chlorobenzamide]

- MDA pIC50 (Table 7, arylamides): 6.03 M
- IC50 [4]: 930 nM
SMILES: COc1ccc(-c2nc(SCCNC(=O)c3cccc(Cl)c3)[nH]c2-c2ccc(OC)cc2)cc1 [Compound T33, N^1-{2-[4,5-Bis(4-methoxyphenyl)-1H-imidazol-2-ylsufanyl]ethyl}-3-chlorobenzamide]

- IC50 [4]: 62 nM
SMILES: COc1ccc(-c2nc(SCCNC(=O)c3ccccc3Cl)[nH]c2-c2ccc(OC)cc2)cc1 [Compound T34, N^1-{2-[4,5-Bis(4-methoxyphenyl)-1H-imidazol-2-ylsufanyl]ethyl}-2-chlorobenzamide]

- IC50 [5]: 251 nM
SMILES: COc1ccc(-c2nc(SCCNC(=O)c3ccc(F)cc3)[nH]c2-c2ccc(OC)cc2)cc1 [Compound T38, N^1-{2-[4,5-Bis(4-methoxyphenyl)-1H-imidazol-2-ylsufanyl]ethyl}-4-fluorobenzamide]

- IC50 [5]: 141 nM
SMILES: COc1ccc(-c2nc(SCCNC(=O)c3ccc(C#N)cc3)[nH]c2-c2ccc(OC)cc2)cc1 [Compound T39, N^1-{2-[4,5-Bis(4-methoxyphenyl)-1H-imidazol-2ylsulfanyl]ethyl}-4-cyanobenzamide]

- IC50 [4]: 81 nM
SMILES: COc1ccc(-c2nc(SCCNC(=O)c3ccc([N+](=O)[O-])cc3)[nH]c2-c2ccc(OC)cc2)cc1 [Compound T40, N^1-{2-[4,5-Bis(4-methoxyphenyl)-1H-imidazol-2-ylsufanyl]ethyl}-4-nitro-benzamide]

- IC50 [5]: 170 nM
SMILES: COc1ccc(-c2nc(SCCNC(=O)c3ccccc3[N+](=O)[O-])[nH]c2-c2ccc(OC)cc2)cc1 [Compound T41, N^1-{2-[4,5-Bis(4-methoxyphenyl)-1H-imidazol-2-ylsulfanyl]ethyl}-2-nitro-benzamide]

- IC50 [5]: 1000 nM
SMILES: COc1ccc(C(=O)NCCSc2nc(-c3ccc(OC)cc3)c(-c3ccc(OC)cc3)[nH]2)cc1 [Compound T45, N^1-{2-[4,5-Bis(4-methoxyphenyl)-1H-imidazol-2-ylsufanyl]ethyl}-4-methoxybenzamide]
